Measurements reported in US12103939B2, “Solid pharmaceutical gold-based composition” (KING FAHD UNIVERSITY OF PETROLEUM AND MINERALS, priority 2019, dated 2024).

Columns and labels:
lysozyme = molecular target: T1, lysozyme (Gallus gallus, UniProt P00698); experiment: Voltammetry, interaction with lysozyme; details: 100 μM complex
T1 construct: purchased Sigma-Aldrich
Description: The pH of buffers was monitored on a Accumet XL50 pH meter. A GR-2000 electrical balance was used to weigh the various chemicals. Electrochemical measurements for cyclic voltammetry and square wave voltammetry were performed using Autolab instruments (Metrohm; Netherlands). […] The GCE was polished as a mirror-like surface with alumina slurry on a synthetic cloth before every electrochemical analysis. Square wave voltammetry and cyclic voltammetry were scanned from 0 to 1.3 V for the various analyses. Elemental analyses of gold(III) complexes (C1-C8) were performed on PerkinElmer Series 11 (CHNS/O), Analyzer 2400.
The electrochemical investigation of the interactions between the gold(III) complexes (C1-C8) and lysozyme, tryptophan and guanine was performed using the Autolab instrument described above, with a three-electrode system (CH Instruments): platinum wire counter electrode (CHI115), Ag/AgCl reference electrode (in 3 M KCl, CHI111) and glassy carbon working electrode (CHI112) inserted into a 5.0 ml glass cell. Solutions of 1 mM lysozyme, 5 mM tryptophan and 5 mM guanine were prepared in double distilled water, and the experiment was performed in 0.1 M phosphate buffer at pH 6.8.

[1] = test system: cisplatin-resistant R-ME-180 clone; experiment: Cytotoxicity assay (MTT, 72 h); assay type: cell-based, human; details: for FR (R-ME-180/ME-180), fold resistance: IC50 R-ME-180 / IC50 ME-180; for IC50: R-ME-180, MTT after 72 h, mean (SD)
Description: (§1) R-ME-180 and A2780cis cells were maintained in 1 μM cisplatin. Adipose-derived stromal cells were maintained in MSCGM BulletKit medium (Lonza). All cell lines were cultured at 37° C. in a 5% CO2, fully humidified atmosphere
(§2) Cell lines were seeded in 96-well flat-bottomed microplates in 100 μL culture medium at the following densities: DU145, PC3 and MCF-7 cells (2.5×10^3 cells/well); A2780, A2780cis, ME-180, R-ME-180 and A549 cells (4.0×10^3 cells/well); and MG-63 cells (2.0×10^3 cells/well). Cells were allowed to adhere for 24 h. Then the medium was replaced with fresh medium alone or with one of the gold(III) complexes at increasing concentrations from 0 to 100 μM. The reference drugs cisplatin (0-100 μM) and doxorubicin (0-1 μM) were included as positive controls for growth inhibition. After 72 h, cell viability was assayed using the MTT assay.
(§3) See Chou T. C.; Talalay P. Quantitative analysis of dose-effect relationships: the combined effects of multiple drugs or enzyme inhibitors. […] 22, 27-55, incorporated herein by reference in its entirety. IC50 values were reported as mean (SD). For drug-resistance cell lines, fold resistance (FR) was calculated as the ratio of the IC50 of the resistant cell line to the IC50 of the parental cell line.

[2] = test system: ovarian cancer cell line A2780; experiment: Cytotoxicity assay (MTT, 72 h); assay type: cell-based, human; details: A2780, MTT after 72 h, mean (SD)
Description: as §1, §2, §3

[3] = test system: MCF-7 breast cancer cell line; experiment: Cytotoxicity assay (MTT, 72 h); assay type: cell-based, human; details: MCF-7, MTT after 72 h, mean (SD); read-out: Half-maximal inhibitory concentration (IC50)
Description: as §1, §2, §3

[4] = test system: cervical cancer cell line ME-180; experiment: Cytotoxicity assay (MTT, 72 h); assay type: cell-based, human; details: ME-180, MTT after 72 h, mean (SD)
Description: as §1, §2, §3

[5] = test system: PC3 prostate cancer cell line; experiment: Cytotoxicity assay (MTT, 72 h); assay type: cell-based, human; details: PC3, MTT after 72 h, mean (SD); read-out: Half-maximal inhibitory concentration (IC50)
Description: as §1, §2, §3

[6] = test system: DU145 prostate cancer cell line; experiment: Cytotoxicity assay (MTT, 72 h); assay type: cell-based, human; details: DU145, MTT after 72 h, mean (SD); read-out: Half-maximal inhibitory concentration (IC50)
Description: as §1, §2, §3

[7] = test system: MG-63 osteosarcoma cell line; experiment: Cytotoxicity assay (MTT, 72 h); assay type: cell-based, human; details: MG63, MTT after 72 h, mean (SD); read-out: Half-maximal inhibitory concentration (IC50)
Description: as §1, §2, §3

[8] = test system: cisplatin- and doxorubicin-resistant A2780cis clone; experiment: Cytotoxicity assay (MTT, 72 h); assay type: cell-based, human; details: for IC50: A2780cis, MTT after 72 h, mean (SD); for FR (A2780cis/A2780), fold resistance: IC50 A2780cis / IC50 A2780
Description: as §1, §2, §3

[9] = test system: A549 lung cancer cell line; experiment: Cytotoxicity assay (MTT, 72 h); assay type: cell-based, human; details: A549, MTT after 72 h, mean (SD); read-out: Half-maximal inhibitory concentration (IC50)
Description: as §1, §2, §3

PC3 cells = experiment: Cellular uptake of gold(III) complexes (ICP-MS); assay type: cell-based, human; details: 3 μM, 2 h, ICP mass spectrometry
Description: After treatment, monolayers were washed with ice-cold PBS four times, and the cells were detached with trypsin-EDTA and washed three times with ice-cold PBS by centrifugation. The cell pellet was solubilized in 700 μL of HNO3—HCl solution (1:3 molar ratio) for 2 h at 100° C., and then diluted with 4 mL water. Samples were analyzed for gold on an Agilent 7500 inductively coupled plasma mass spectrometer (ICP-MS). Results were expressed as ng gold/10^6 cells. The experiment was performed a total of two times and the results were expressed as mean and SD.

[10] = CV, 0 μM lysozyme, 0.1 M phosphate buffer pH 6.8

T1 sequence (P00698 19-147): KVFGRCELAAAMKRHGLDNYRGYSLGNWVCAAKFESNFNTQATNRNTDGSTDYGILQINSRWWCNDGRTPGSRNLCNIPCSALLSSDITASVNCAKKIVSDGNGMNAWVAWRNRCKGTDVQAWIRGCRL

Row | Structure (SMILES) | Voltammetry peak potential (lysozyme; [10]) | Voltammetry peak potential (lysozyme; CV, 1 μM lysozyme, pH 6.8) | Voltammetry peak potential (lysozyme; CV, 4 μM lysozyme, pH 6.8) | Voltammetry peak potential (lysozyme; CV, 10 μM lysozyme, pH 6.8) | Voltammetry peak potential (lysozyme; SWV, 0 μM lysozyme, pH 6.8) | Voltammetry peak potential (lysozyme; SWV, 1 μM lysozyme, pH 6.8) | Voltammetry peak potential (lysozyme; SWV, 4 μM lysozyme, pH 6.8) | Voltammetry peak potential (lysozyme; SWV, 10 μM lysozyme, pH 6.8) | FR (R-ME-180/ME-180), fold resistance [1] | IC50 [1] | IC50 [2] | IC50 [3] | IC50 [4] | IC50 [5] | IC50 [6] | IC50 [7] | IC50 [8] | FR (A2780cis/A2780), fold resistance [8] | IC50 [9] | also measured
1 | CN(C)C1=[S+][Au-]2([S]1)[n+]1cccc(O)c1-c1c(O)ccc[n+]12.[Cl-].[Cl-] [C2, [Au(BPYH)(DMDTC)]Cl2] | 0.7921 V | 0.8009 V | 0.8186 V | 0.8319 V | 0.7883 V | 0.7934 V | 0.8085 V | 0.8135 V | 1.5 | 21 µM | 0.9 µM | 2.3 µM | 14 µM | 1.5 µM | 2.8 µM | 3.8 µM | 0.8 µM | 0.9 | 6.1 µM | 
2 | COc1cccc2c1C(=O)c1c(O)c3c(c(O)c1C2=O)C[C@@](O)(C(=O)CO)C[C@@H]3O[C@H]1C[C@H](N)[C@H](O)[C@H](C)O1 [Doxorubicin, reference compound] |  |  |  |  |  |  |  |  |  |  |  |  |  |  |  |  |  | 9.0 |  | IC50 ([2]; Homo sapiens): 0.02 µM; IC50 ([8]; Homo sapiens): 0.12 µM
3 | Oc1ccc[n+]2c1-c1c(O)ccc[n+]1[Au-]2([Cl])[Cl].[Cl-] [C1, [Au(BPYH)(Cl)2]Cl] | 0.739 V | 0.8142 V | 0.8319 V | 0.8762 V | 0.7934 V | 0.8034 V | 0.8387 V | 0.8639 V | 1.0 | 72 µM | 23 µM | 59 µM | 70 µM | 28.3 µM | 39 µM | 43 µM | 24 µM | 1.0 | > 80 µM | 
4 | [Cl-].[Cl-].[Cl][Au-]1([Cl])[n+]2ccc[n+]3c2-c2[n+]1ccc[n+]2[Au-]3([Cl])[Cl] [C5, [Au2(BPM)(Cl)4]Cl2] |  |  |  |  |  |  |  |  |  | > 80 µM | 15.4 µM | 65 µM | > 80 µM | > 80 µM | > 80 µM | 26 µM | 16.2 µM | 1.1 | > 80 µM | 
5 | N.N.[Cl][Pt][Cl] [Cisplatin, reference compound] |  |  |  |  |  |  |  |  | 4.5 | 68 µM | 1.5 µM |  | 15 µM | 3.3 µM | 4.5 µM |  | 10.4 µM | 6.9 |  | 
6 | Oc1ccc[n+]2c1-c1c(O)ccc[n+]1[Au-]21[S]C(N(Cc2ccccc2)Cc2ccccc2)=[S+]1.[Cl-].[Cl-] [C4, [Au(BPYH)(DBDTC)]Cl2] | 0.7965 V | 0.8098 V | 0.8186 V | 0.8275 V | 0.7883 V | 0.7934 V | 0.8085 V | 0.8135 V | 1.0 | 30 µM | 7.3 µM | 13 µM | 30 µM | 8.5 µM | 6.4 µM | 12.3 µM | 8.2 µM | 1.1 | 25 µM | 
7 | CCN(CC)C1=[S+][Au-]2([S]1)[n+]1cccc(O)c1-c1c(O)ccc[n+]12.[Cl-].[Cl-] [C3, [Au(BPYH)(DEDTC)]Cl2] | 0.7965 V | 0.8098 V | 0.8231 V | 0.8363 V | 0.7934 V | 0.8034 V | 0.8135 V | 0.8236 V | 1.3 | 3.8 µM |  | 1.7 µM |  | 1.3 µM | 3.5 µM | 1.2 µM | 0.4 µM | 1.1 | 3.8 µM | 
8 | CC[N+](CC)=C1[S][Au-]2([S]1)[n+]1ccc[n+]3c1-c1[n+]2ccc[n+]1[Au-]31[S]C(=[N+](CC)CC)[S]1.[Cl-].[Cl-].[Cl-].[Cl-] [C7, [Au2(BPM)(DEDTC)2]Cl4] |  |  |  |  |  |  |  |  | 0.9 | 4.1 µM |  | 0.6 µM |  | 0.8 µM | 0.8 µM | 0.7 µM | 0.3 µM | 0.9 | 1.4 µM | amount of internalized gold (cellular uptake) (PC3 cells): greater uptake
9 | [Cl-].[Cl-].[Cl-].[Cl-].c1ccc(C[N+](Cc2ccccc2)=C2[S][Au-]3([S]2)[n+]2ccc[n+]4c2-c2[n+]3ccc[n+]2[Au-]42[S]C(=[N+](Cc3ccccc3)Cc3ccccc3)[S]2)cc1 [C8, [Au2(BPM)(DBDTC)2]Cl4] |  |  |  |  |  |  |  |  | 1.0 | 16 µM | 3.8 µM | 9.5 µM | 15 µM | 19.5 µM | 22.8 µM | 5.8 µM | 5.2 µM | 1.4 | 23 µM | 
